These results are taken from paper PMC5007466, “VCP recruitment to mitochondria causes mitophagy impairment and neurodegeneration in models of Huntington's disease” (Nature Communications, 2016).

Data set [1] deals with HdhQ7 striatal cells. The experiment in a line: Total GFP-LC3B protein level. Format: cell-based, mouse. Particulars: Flag-VCP + GFP-LC3B, 36 h. How it is done: Protein concentrations were determined by Bradford assay. Protein was resuspended in Laemmli buffer, loaded on SDS–PAGE, and transferred onto nitrocellulose membranes. Membranes were probed with the indicated antibodies, followed by visualization with ECL. Representative blots have been cropped for presentation. Images of full-size blots are presented in Supplementary Fig. 9. […]
mouse striatal cells were treated with thapsigargin (1μM) or tunicamycin (10μ g/ml) for 16 hours i n the presence or absence of HV -3 (3 µM). GRP78 total protein levels were determined by western blot analysis. Representative blots of three independent experiments are shown. Actin was used here as a loading control. (b) Tw e n t y -four hours of serum starvation was performed in HD mouse striatal cells.
Caspase-3 activity analysis was performed in the indicated groups. Data are mean ± SEM of three independent experiments. (c) Flag-VCP and GFP-LC3B were co-transfected into HdhQ7 striatal cells.
Total lysates were isolated after 36 hours of transfection. The GFP -LC3B levels were examined by western blot analysis. Actin was used as a loading control. Histogram: quantitation of GFP-LC3B total protein level. Data are mean ± SEM of three independent experiments.
(1 picture or pasted object on this page, not shown here)

The subject of data set [2] is C57Black mice. The experiment in a line: Toxicity analysis in naive mice. It is filed as in vivo, mouse. How it is done: Supplementary Figure 8 : Toxicity analysis of HV -3in naïve mice .
We performed a toxicity analysis of HV-3 in mice. Six -week-old C57Black mice were treated with saline or peptide HV-3 at 3mg/kg/day by Alzet pump implantation. After 4- week treatment, the plasma, blood and whole mouse bodies of mice were collected. Examination on blood chemistry (Supplementary Table 1), hematology (Supplementary Table 2) and general necropsy of mice were performed at the Animal Diagnostic Laboratory at Stanford University. The experimenter who conducted the analysis was blind to the treatment groups. Automated hematology was performed on the Sysmex XT-2000iV analyzer system. Blood smears were made for all full CBC samples and reviewed by a medical technologist. Manual differentials were performed as indicated by species and automated analysis. Chemistry analysis was performed on the Siemens Dimension Xpand analyzer.
(a) Frozen tissue sections of brain and spleen were stained with anti-CD3 antibody by immunohistochemistry. There is no observed difference in the immuno-density of CD3 between saline-and HV-3- treated groups. Scale bar: 100 µm. (b) The size and weight of spleens in mice treated with saline or peptide HV-3 were compared. Left: the ratio of spleen weight to body weight was calculated and expressed as mean ± SEM of five mice in each group. Right: the images of spleens of mice treated with saline or peptide HV-3. There is no observed difference in the size of the spleens. Paired Student’s t test. Four-week sustained treatment with HV-3 by pump implantation had no effects on blood chemistry (Supplementary Table 1), hematology (Supplementary Table 2), and gross necropsy of naïve mice when compared to mice treated with saline. A four-week treatment with HV-3 had […] on immuno-density of CD3, a marker of T-cell for adaptive immune response, in the brains and spleens of naïve mice (a). Treatment with HV-3 had no effects on the size and weight of the spleens (b). […]

A short description of data set [3]: LC/MS detection of HV-3 in mouse brain and plasma. Format: in vivo. The conditions noted are these: LC/MS m/z 506.4. The source says: The new figures above and related figure legends have all been added to the revised manuscript. The related discussion has been added on page 17 line 2 and line 5. The methods of ITC and immunoprecipitation with biotin-peptides have been added to the Method section (see pages 21-23) of […]
Comment 3: The in vivo use of TAT-tagged HV-3 peptide lacks essential PK/PD data. What is the PK/PD of the reagent with their osmotic pump delivery? The data in Supplemental Fig. 5B is simply unacceptable, with different background between control and HV-3, and with only a few cells shown and without any quantitation. Is there any long-term toxicity of such delivery? Did they measure adaptive immune response to the HV-3 peptide? And if there is such a response, do the immune reactions rather than inhibition of mHTT-VCP interactions underlying therapeutic effects? Response: For the analysis of PK/PD, we have to subcontract with bio-company. The cost will be a minimum of $80,000. Due to limited funds, we cannot afford such an expensive experiment. Working with the Mass Spectrometry Core Facility at Cleveland Clinic Foundation Research Center, we attempted to determine the concentration of HV-3 after treatment in mice by pump implantation. […]
by protein precipitation methods (see figure below). […]
proteins in mice after treatment. The data seem to be consistent with our findings that HV-3 binds to VCP. Because of current technical constraints to dissociate peptide from the binding proteins, we were not able to test the accurate concentration of the peptide HV-3 in brain tissues and plasma. Therefore, we […]
We would appreciate it if the reviewer could understand.
Based on the reviewer’s comment, in the revised manuscript, we removed the original supplemental […]
Regarding toxicity of HV3, we performed toxicity analysis of HV-3 in mice at Stanford University. […]
ions in positive electrospray ionization and the ion at 5 charged (m/z 506.4) has the highest intensity on the Shimadzu LC/MS 8050. (B) HV-3 at 5 charged (m/z 506.4) in positive electrospray ionization was monitored. […]

The mark [4] stands for this setting: 3 mg/kg/day, 4 weeks, versus saline.

Regarding `CSCC[C@H](NC(=O)[C@@H](NC(=O)[C@H](CC(C)C)NC(=O)[C@@H](NC(=O)[C@H](Cc1c[nH]cn1)NC(=O)CCCCCNC(=O)[C@H](CCCNC(=N)N)NC(=O)[C@H](CCCNC(=N)N)NC(=O)[C@H](CCCNC(=N)N)NC(=O)[C@H](CCC(N)=O)NC(=O)[C@H](CCCNC(=N)N)NC(=O)[C@H](CCCNC(=N)N)NC(=O)[C@H](CCCCN)NC(=O)[C@H](CCCCN)NC(=O)[C@H](CCCNC(=N)N)NC(=O)CNC(=O)[C@@H](N)Cc1ccc(O)cc1)C(C)C)C(C)C)C(=O)N[C@@H](CS)C(=O)N[C@@H](C)C(=O)N[C@H](C(N)=O)[C@@H](C)O` [HV-3], the “total GFP-LC3B protein level” value in data set [1] is “no effect on the total protein level of GFP-LC3B”. For the same compound, the toxicity result in data set [2] (3 mg kg^−1 per day, 4-week Alzet pump) is recorded as “not toxic to naive mice”. In data set [2] (setting [4]), the “CD3 immunodensity in brain and spleen” value is “no significant effects on the immunodensity of CD3”; the gross necropsy entry is on record as “no effects”. Also, the “size and weight of spleens” value in data set [2] (3 mg/kg/day, 4 weeks, versus saline, n = 5) was “no obvious effects on the size and weight of the spleens”. In data set [3] (mice, pump implantation), the “HV-3 in supernatant of plasma after protein precipitation” value is recorded as “not detectable”; the “HV-3 in total brain lysates, plasma and precipitated plasma proteins” value is “can be detected”. Further, in data set [3] (mouse brain total lysates without protein precipitation, legend prints HV-3 (1000 nM)), the “HV-3 in brain total lysates over time” value is “day, one week and two weeks after treatment”.
